Measured values published in article PMC10562458, “Identification of side effects of COVID-19 drug candidates on embryogenesis using an integrated zebrafish screening platform” (Scientific Reports, 2023).
Entries after “also recorded” stand apart in the source; their conditions may differ. Where two headings read alike, the source gives them in different places. *1 amine or outer side, *2 acyl side, *3 side chain or, on linkers, in order; H or OH if unused. Where a SMILES comes first, the peptide text is derived from it. Bridges are numbered along the chain shown (N, C = ends). [ ]: non-standard residue; d: D form. The star is where a group is joined. pTerphenylCO(4''-OnC5H11) = CCCCCOc1ccc(-c2ccc(-c3ccc(C(=O)*)cc3)cc2)cc1; Orn(4R-OH,5R-OH) = O=C([C@H](C[C@@H](O)[C@@H](O)N[*:3])N[*:1])[*:2]; hTyr(3S-OH,4S-OH) = N[C@H](C(=O)O)[C@H](O)[C@@H](O)c1ccc(O)cc1; Pro(3S-OH,4S-Me) = C[C@H]1CN[C@H](C(=O)O)[C@H]1O; Hyp = O=C(O)[C@@H]1C[C@@H](O)CN1

Assays:
zebrafish embryos = settings: for Mortality rate (MR) / Pericardial effusion (percentage of treated larvae): 1 µM; for Mortality rate (MR): average percentage of larvae that died before imaging; for Effect on heart functionality: clinically relevant doses (Cmax); for Pericardial Effusion Rate(%): zebrafish, in vivo; for Overall effect on embryonic development / cardiovascular system: screening concentration; for Overall effect on embryonic development: clinically relevant concentrations (Cmax)
zebrafish larvae = assay: Behavioral assay (bright/dark locomotion test, DanioVision); settings: for Effect on swimming behavior: screening concentration 1 µM (Ivermectin 0.5 µM)
[1] = read-out: Cmax (highest concentration detected in blood plasma), humans; cited from earlier work
[2] = system: inflammatory and immune response gene expression; assay type: in vivo, zebrafish (Danio rerio); settings: for Inflammatory response related gene expression upon SARS-CoV-2 spike protein treatment: with spike protein; for Inflammatory gene response in the absence of spike protein: without spike protein, vs DMSO
[3] = with SARS-CoV-2 spike protein, drug 48 h

In the case of 17α-Hydroxyprogesterone, the “Effect on body length” value (zebrafish embryos; 1 µM screening) is reported as “larval overgrowth”.

In the case of `S=C(NCc1ccc2c(c1)OCO2)N1CCN(c2ncnc3c2oc2ccccc23)CC1` [Amuvatinib], the “Effect on swimming behavior” value (zebrafish larvae) is reported as “effect”.

In the case of `CCCCCOc1ccc(-c2ccc(-c3ccc(C(=O)N[C@H]4C[C@@H](O)[C@@H](O)NC(=O)[C@@H]5[C@@H](O)[C@@H](C)CN5C(=O)[C@H]([C@@H](C)O)NC(=O)[C@H]([C@H](O)[C@@H](O)c5ccc(O)cc5)NC(=O)[C@@H]5C[C@@H](O)CN5C(=O)[C@H]([C@@H](C)O)NC4=O)cc3)cc2)cc1` [Anidulafungin] ({pTerphenylCO(4''-OnC5H11)}-[Orn(4R-OH,5R-OH)]T[Hyp][hTyr(3S-OH,4S-OH)]T[Pro(3S-OH,4S-Me)]; lactam 1-C), the “Effect on swimming behavior” value (zebrafish larvae) is reported as “effect”.

For `Cc1cccc(/C=N/Nc2cc(N3CCOCC3)nc(OCCc3ccccn3)n2)c1` [Apilimod], the “Effect on swimming behavior” value (zebrafish larvae) was “effect” and the “Mortality rate (MR)” value (zebrafish embryos) was “over 10%”.

For `COc1ccc(CCN2CCC(Nc3nc4ccccc4n3Cc3ccc(F)cc3)CC2)cc1` [Astemizole], the “Pericardial effusion (percentage of treated larvae)” value (zebrafish embryos) was 94.4%, the “Effect on ISV area” value (zebrafish embryos; 1 µM screening) was “negative effects” and the “Effect on body length” value (zebrafish embryos; 1 µM screening) was “highest reduction”. The “Mortality rate (MR)” value (zebrafish embryos) was “over 10%”.

In the case of `CCS(=O)(=O)N1CC(CC#N)(n2cc(-c3ncnc4[nH]ccc34)cn2)C1` [Baricitinib], the “Effect on motility / swimming behavior / embryo activity” value (zebrafish larvae; at Cmax) is listed as “effects on embryo activity; also recorded: alterations; also recorded: affected”, the Cmax [1] is listed as 144 nM and the “Mean Mortality(%)” value (zebrafish embryos; at Cmax, mean of morphological and behavioral assay) is listed as 18.3%. For the same compound, the “Effect on heart functionality” value (zebrafish embryos) was “reduced heart functionality”, the “Pericardial Effusion Rate(%)” value (zebrafish embryos) was 9.30% and the ccl20a.3 levels [2, 3] was “significantly reduced”. The “Inflammatory response related gene expression upon SARS-CoV-2 spike protein treatment” value [2] was “counteracted” and the “Inflammatory gene response in the absence of spike protein” value (“Inflammatory gene response” for short) [2] was “alter the inflammatory gene response”.

For `Nc1nc(Nc2ccc3c(c2)CC[C@@H](N2CCCC2)CC3)nn1-c1cc2c(nn1)-c1ccccc1CCC2` [Bemcentinib], the “Effect on swimming behavior” value (zebrafish larvae) was “effect”.

With `COc1cc2nccc(Oc3ccc(NC(=O)C4(C(=O)Nc5ccc(F)cc5)CC4)cc3)c2cc1OC` [Cabozantinib] the “Effect on swimming behavior” value (zebrafish larvae) was “effect” and the “Effect on ISV formation” value (zebrafish embryos; 1 µM screening) was “strong inhibition”.

With `CN(C)C(=O)COC(=O)Cc1ccc(OC(=O)c2ccc(NC(=N)N)cc2)cc1` [Camostat] the “Effect on swimming behavior” value (zebrafish larvae) was “effect”.

In the case of `CC(C)C[C@H](NC(=O)[C@@H](NC(=O)c1cccc(-c2ccccc2)n1)[C@@H](C)O)B(O)O` [Delanzomib], the “Effect on swimming behavior” value (zebrafish larvae) is reported as “effect”.

With `NC(=O)c1nc(F)c[nH]c1=O` [Favipiravir] the “Effect on body length” value (zebrafish embryos; 1 µM screening) was “mild effect”.

In the case of `COc1ccc2cc1Oc1ccc(cc1)C[C@H]1c3cc(c(OC)cc3CCN1C)Oc1c(O)c(OC)cc3c1[C@H](C2)N(C)CC3` [Hanfangchin B], the “Effect on swimming behavior” value (zebrafish larvae) is reported as “effect”.

With `CCN(CCO)CCCC(C)Nc1ccnc2cc(Cl)ccc12` (stereo not drawn) [Hydroxychloroquine] the “Effect on ISV area” value (zebrafish embryos; 1 µM screening) was “significant reductions”, the “Effect on ejection fraction” value (zebrafish embryos; 1 µM screening) was “significant reductions” and the “Overall effect on embryonic development / cardiovascular system” value (zebrafish embryos) was “mild defects on the cardiovascular system”.

In the case of `Cc1cccc(C)c1OCC(=O)N[C@@H](Cc1ccccc1)[C@@H](O)C[C@H](Cc1ccccc1)NC(=O)[C@H](C(C)C)N1CCCNC1=O` [Lopinavir], the “Effect on ejection fraction” value (zebrafish embryos; 1 µM screening) is reported as “reduced”.

With `COC(=O)C1=C(C)NC(C)=C(C(=O)OCCN2CCN(C(c3ccccc3)c3ccccc3)CC2)C1c1cccc([N+](=O)[O-])c1` (stereo not drawn) [Manidipine] the “Mortality rate (MR)” value (zebrafish embryos) was “over 10%”.

In the case of `CO[C@@H]1[C@H](N(C)C(=O)c2ccccc2)C[C@H]2O[C@]1(C)n1c3ccccc3c3c4c(c5c6ccccc6n2c5c31)C(=O)NC4` [Midostaurin], the “Mortality rate (MR)” value (zebrafish embryos) is reported as “over 10%”.

For `CC(C)C(=O)OC[C@H]1O[C@@H](n2ccc(NO)nc2=O)[C@H](O)[C@@H]1O` [Molnupiravir], the Cmax [1] is given as 40 nM, the “Overall effect on embryonic development” value (zebrafish embryos) is given as “severe adverse effects” and the “Pericardial Effusion Rate(%)” value (zebrafish embryos) is given as 0.00%. For the same compound, the ccl20a.3 levels [2, 3] was “significantly reduced”, the il4 expression [2, 3] was “successfully downregulated” and the ptg expression [2, 3] was “upregulated to control levels”. For the same compound, the “Inflammatory response related gene expression upon SARS-CoV-2 spike protein treatment” value [2] was “counteracted” and the “Inflammatory gene response” value [2] was “alter the inflammatory gene response”.

In the case of `O=C(Nc1ccc([N+](=O)[O-])cc1Cl)c1cc(Cl)ccc1O` [Niclosamide], the “Mortality rate (MR)” value (zebrafish embryos) is reported as “over 10%”.

In the case of `O=C(Nc1cc(Cl)cc(Cl)c1O)c1c(O)c(Cl)cc(Cl)c1Cl` [Oxyclozanide], the “Effect on swimming behavior” value (zebrafish larvae) is reported as “effect”.

For `O=c1[nH]c2ccccc2n1C1CCN(CCCC(c2ccc(F)cc2)c2ccc(F)cc2)CC1` [Pimozide], the “Pericardial effusion (percentage of treated larvae)” value (zebrafish embryos) was 100%, the “Effect on ISV area” value (zebrafish embryos; 1 µM screening) was “negative effects” and the “Effect on body length” value (zebrafish embryos; 1 µM screening) was “highest reduction”. For the same compound, the “Mortality rate (MR)” value (zebrafish embryos) was “over 10%”.

In the case of `Cc1ccc(C(=O)Nc2ccc(CN3CCN(C)CC3)c(C(F)(F)F)c2)cc1C#Cc1cnc2cccnn12` [Ponatinib], the “Effect on swimming behavior” value (zebrafish larvae) is reported as “effect”, the “Pericardial effusion (percentage of treated larvae)” value (zebrafish embryos) is reported as 100% and the “Effect on body length” value (zebrafish embryos; 1 µM screening) is reported as “highest reduction”.

With `C[C@@H](c1nc(-c2ccc(C#N)cc2)cs1)[C@](O)(Cn1cncn1)c1ccc(F)cc1F` [Ravuconazole] the “Effect on swimming behavior” value (zebrafish larvae) was “effect”.

In the case of `CNC(=O)c1cc(Oc2ccc(NC(=O)Nc3ccc(Cl)c(C(F)(F)F)c3)c(F)c2)ccn1` [Regorafenib], the “Effect on ISV formation” value (zebrafish embryos; 1 µM screening) is reported as “strong inhibition”.

In the case of `CCC(CC)COC(=O)[C@H](C)N[P@](=O)(OC[C@H]1O[C@@](C#N)(c2ccc3c(N)ncnn23)[C@H](O)[C@@H]1O)Oc1ccccc1` [Remdesivir], the Cmax [1] is given as 4500 nM, the “Effect on ejection fraction” value (zebrafish embryos; at Cmax) is given as “decrease” and the “Effect on heart rate” value (zebrafish embryos; at Cmax) is given as “decrease”. For the same compound, the “Overall effect on embryonic development” value (zebrafish embryos) was “severe adverse effects”, the “Effect on heart functionality” value (zebrafish embryos) was “reduced” and the “Pericardial Effusion Rate(%)” value (zebrafish embryos) was 7.69%. For the same compound, the ptg expression [2, 3] was “upregulated to control levels”, the “Inflammatory response related gene expression upon SARS-CoV-2 spike protein treatment” value [2] was “counteracted” and the “Inflammatory gene response” value [2] was “broadest effect; also recorded: alter the inflammatory gene response”.

For `NC(=O)c1ncn([C@@H]2O[C@H](CO)[C@@H](O)[C@H]2O)n1` [Ribavirin], the “Effect on ISV area” value (zebrafish embryos; 1 µM screening) was “mildly reduced”.

In the case of `CC(C)c1nc(CN(C)C(=O)N[C@H](C(=O)N[C@@H](Cc2ccccc2)C[C@H](O)[C@H](Cc2ccccc2)NC(=O)OCc2cncs2)C(C)C)cs1` [Ritonavir], the Cmax [1] is listed as 15200 nM, the “Effect on ejection fraction” value (zebrafish embryos; at Cmax) is listed as “altered” and the “Effect on heart rate” value (zebrafish embryos; at Cmax) is listed as “altered”. The “Overall effect on embryonic development” value (zebrafish embryos) was “overall little embryonic alterations”, the “Pericardial Effusion Rate(%)” value (zebrafish embryos) was 8.70% and the “Inflammatory response related gene expression upon SARS-CoV-2 spike protein treatment” value [2] was “counteracted”. For the same compound, the “Inflammatory gene response” value [2] was “alter the inflammatory gene response”.

With `CNC(=O)c1cc(Oc2ccc(NC(=O)Nc3ccc(Cl)c(C(F)(F)F)c3)cc2)ccn1` [Sorafenib] the “Effect on ISV formation” value (zebrafish embryos; 1 µM screening) was “strong inhibition”.

With `C=CC[C@@H]1/C=C(\C)C[C@H](C)C[C@H](OC)[C@H]2O[C@@](O)(C(=O)C(=O)N3CCCC[C@H]3C(=O)O[C@H](/C(C)=C/[C@@H]3CC[C@@H](O)[C@H](OC)C3)[C@H](C)[C@@H](O)CC1=O)[C@H](C)C[C@@H]2OC` [Tacrolimus] the “Effect on ejection fraction” value (zebrafish embryos; 1 µM screening) was “increase”.

For `CCOC(=O)c1c(CSc2ccccc2)n(C)c2cc(Br)c(O)c(CN(C)C)c12` [Umifenovir], the “Effect on ISV area” value (zebrafish embryos; 1 µM screening) was “mildly reduced”.

In the case of Ivermectin, the “Effects on larval behavior” value (zebrafish larvae; 0.5 µM) is reported as “still observed effects”, the “Effect on swimming behavior” value (zebrafish larvae) is reported as “most severe effects” and the Mortality (zebrafish embryos; 0.5 µM) is reported as “mortality disappeared”. The “Effect on body length” value (zebrafish embryos; 1 µM screening) was “highest reduction”, the “Mortality rate (MR)” value (zebrafish embryos) was “over 10%” and the “Overall effect on embryonic development / cardiovascular system” value (zebrafish embryos) was “severely affected embryonic development”.
